Each structure is given as a SMILES string. Counter-ions that a name gives are not always drawn.

Type in all cases: in vivo
One series deals with rats. Description: Intestinal adhesion in rats. The note with it: 6 mg/kg once a day, 7th day. The method, then: Rats were fasted for 12 h and models were built according to the methods in the literature [Xu Shuyun, Methodology in Pharmacological Experiment (the 3rd version): 1335]. The rats were randomly divided into five groups, namely, model control group, dexamethasone group, rhein sodium group, rhein glucosamine large dose group and low dose group. Each group included 12 rats. […] The rats of the model group were administered with the same volume of NS, while the rats of the positive control group were administered with dexamethasone, administered once every two days, dose: 10 mg/kg. The administration volume was the same as the treatment group. The rats were killed on the 7th day and carried on laparotomy. Adhesion degree was classified and scored respectively. The classification and score of the observed index-adhesion degree can refer to the five-grade classification method prepared by Nair, and determine the classification standard, see Schedule 13. Intestinal adhesion classification adopts Ridit analysis. The test results are as follows (Table 14): […]

A further series concerns obese hyperglycemia mice. The series is described as follows: Body weight and blood glucose of obese hyperglycemia mice. The method, then:
9-week-old obese mice of hyperglycemia were randomly divided into: rhein sodium group, non-treatment group, rosiglitazone group, rhein lysine high-dose group and low-dose group, each group has 6 mice. Kunming mice of the same age were used as the control group, which were fed by conventional feedstuff with free food and water feeding. Rhein lysine conjugates [the dose is 180 mg/kg (0.418 mmol/kg) and 90 mg/kg (0.209 mmol/kg) for intragastric infusion, prepared with distilled water], dose of the rhein sodium group is 130 mg/kg (0.424 mmol/kg), the mixture was dissolved with distilled water, intragastric administration; rosiglitazone group (the dose is 4 mg/kg), the mixture was dissolved with distilled water, intragastric administration, and the rats of the other two groups were administered with the same volume of distilled water, once a day, 12 weeks of administration in succession. The animals' body weight and blood sugar were measured regularly, and statistical analysis was conducted.

Series [1] concerns mice. Description: Capillary permeability of mice. The note with it: dosage 12 mg/kg. The method, then: Each group has 12 mice, administration: 0.20 ml/10 g. Mice in the model control group were administrated with isovolumic physiologic saline.
For series [2], the system named is mice. Description: Xylene-induced swelling of auricle in mice. As to conditions: ig 40 mg/kg, 3 days. On the procedure:
Fifty male Kunming mice were selected, weighing 18-22 g each, and randomly divided into five groups, namely, model control group, aspirin group, rhein sodium group, rhein glucosamine large dose group and low dose groups. Each group had 10 mice respectively. The mice were administered with medicines by intragastric administration every day, for 0.2 ml/10 g body weight. The mice of the model control group were administered with equal volume of physiological saline, once every day, continuously administration for 3 days. After 60 minutes of the final administration, carried on test according to the method in the literature [Xu Shuyun, Methodology in Pharmacological Experiment (the 3rd version): 911]. The sweeling degree of auricle was calculated and statistical analysis was conducted.

Series [3] has as its system rabbits' ear marginal veins. The series is described as follows: Safety of hydro-acupuncture injection: irritation of rabbits' ear marginal vein. As to conditions: rabbit, in vivo. The source says:
In rabbits' ear marginal vein aseptic operation, rhein sodium salt, rhein arginine conjugates and 0.9% sodium chloride injection liquid were slowly filled into the veins respectively every two days for three consecutive times.

The subject of series [4] is mice. Description: Intestinal propulsion in mice. The note with it: dosage 12 mg/kg, intravenous injection. The method, then: Fifty mice, male, weighting from 18 to 22 g, were randomly divided into five groups, namely, model control group, domperidone group, rhein sodium group, rhein glucosamine large dose group and low dose group.
Each group has 10 mice respectively. The mice were fasted, but water was not prohibited, and then administered with medicines by intravenous injection. After that, tests were carried on immediately according to the methods in the literature[Xu Shuyun, Methodology in Pharmacological Experiment (the 3rd version): 1313]. The intestinal propulsive rates were calculated, and t test was used for the intergroup comparison.

In series [5] the test system is obese rats of high-fat and high-sugar diet. Description: Body weight of obese rats of high-fat and high-sugar diet. The note with it: Group E. From the text:
Group A: conventional diet, 4 weeks later, started to carry on intragastric administration, and the same volume of distilled water as the control, once daily, three weeks in succession.
Group B: high-fat high-sugar diet, 4 weeks later, started to carry on intragastric administration, and the same volume of distilled water as the model control, once daily, three weeks in succession.
Group C: high-fat high-sugar diet, 4 weeks later, started to carry on intragastric administration of rhein lysine conjugates [dose: 90 mg/kg (0.209 mmol/kg), prepared by distilled water], once daily, three weeks in succession.
Group D: high-fat high-sugar diet, 4 weeks later, started to carry on intragastric administration of rhein lysine conjugates [dose: 45 mg/kg (0.105 mmol/kg), prepared by distilled water], once daily, three weeks in succession.
Group E: high-fat high-sugar diet, 4 weeks later, started to carry on intragastric administration of rhein sodium [dose: 65 mg/kg (0.212 mmol/kg), prepared by distilled water], once daily, three weeks in succession.

For series [6], the system named is mice. The series is described as follows: Immune function in mice (clearance index, phagocytic index). As to conditions: ig 40 mg/kg, 3 days. The method, then: Fifty Kunming mice, half male and half female, weighing 18-22 g each were selected and randomly divided into five groups, namely, model control group, cyclophosphamide group, rhein sodium group, rhein glucosamine large dose group and small dose group, 10 mice for each group. The mice were administered with medicines by intragastric administration, 0.2 ml/10 g body weight, once every day and administered for 3 days in succession. After the mice were administered with medicines, 30 minutes later, test was carried on according to the method in the literature [Xu Shuyun, Methodology in Pharmacological Experiment (the 3rd version): 934]. The […] and corrected phagocytic index α were calculated, and t-test was conducted for statistical analysis.

[7] abbreviates: baseline of group given ig 130 mg/kg once a day.

For the compound `O=C(O)c1cc(O)c2c(c1)C(=O)c1cccc(O)c1C2=O` [Rhein sodium salt, rhein sodium salt], the “Rating of adhesion degree 0” value with rats (number of 12 rats with completely no adhesion) was determined as 1. In addition, in the series with rats (number of 12 rats with more than two adhering zones), the “Rating of adhesion degree III” value turned out to be 3. In the series on rats (number of 12 rats with one adhering zone), the “Rating of adhesion degree I” value is 4. Also, the “Rating of adhesion degree IV” value in the series on rats (number of 12 rats with organs adhering to abdominal wall directly) was 2. For the same compound, the “Rating of adhesion degree II” value with rats (number of 12 rats with two adhering zones) came out at 2. In the series on obese hyperglycemia mice (setting [7]), the “Blood glucose prior to administration” value came to 28.9 ± 4.8 mmol/L and the “Body weight prior to administration” value was determined as 28.9 ± 1.8 g. For the same compound, in the series with obese hyperglycemia mice (ig 130 mg/kg once a day), the “Blood glucose 6 w after administration” value worked out at 31.2 ± 5.5 mmol/L, the “Blood glucose 9 w after administration” value worked out at 33.5 ± 5.4 mmol/L, the “Blood glucose 12 w after administration” value stood at 30.1 ± 4.5 mmol/L and the “Body weight 6 w after administration” value was found to be 35.8 ± 1.5 g. Moreover, in the series with obese hyperglycemia mice (ig 130 mg/kg once a day), the “Body weight 9 w after administration” value is listed as 39.5 ± 1.4 g and the “Body weight 12 w after administration” value was 41.1 ± 1.5 g. This compound also yielded an absorbance value in the series with mice [1] of 0.494 ± 0.134. In the series with mice [2], this compound came in with an inhibition rate of 29.8% and a swelling degree of auricle of 12.5 ± 2.2 mg. In series [3], the “biopsy of rabbits' ear marginal vein” value was “slight with partial endothelial cell necrosis and abscission, and inflammatory response of the surrounding tissues”; the “irritation on rabbits' ear marginal veins” value is “has irritation”. The Propulsive rate in the series on mice [4] is 51.69 ± 7.1 %. Moreover, the “The body weight increased 7 weeks after high-sugar high-fat diet” value in series [5] (after three weeks ig 65 mg/kg once daily) came out at 17.1 ± 4.1 g. For the same compound, the “The body weight increased 4 weeks after high-sugar high-fat diet” value in series [5] (before start of ig 65 mg/kg) worked out at 15.8 ± 4.3 g. Further, in the series on mice [6], the “Clearance index (k)” value came out at 0.0272 ± 0.0124 and the “Phagocytic index (α)” value is 4.9134 ± 0.7498.
